Consider four compounds from patent US7682602B2, “Near-infrared fluorescent contrast medium” (Konica Minolta Medical & Graphic, Inc., priority 2003, dated 2010).

As a reminder, the solubility is the concentration that dissolves in the medium under given conditions.

Data set [1] in a line: Discharge in vitro of cyanine compound (urethra catheter, liquid chromatograph). Further details: species or system mouse. The settings on record: sum of discharge over one week after dosage; relative value, amount in vivo after dosage = 100. The procedure:
Discharge in vitro of a cyanine compound of contrast medium material was determined by fitting a urethra with a catheter and summing up the discharge over one week after the dosage, and represented by a relative value, based on the amount in vivo of the cyanine compound after the dosage thereof being 100. The discharge of a cyanine compound was determined using liquid chromatograph 2010 (available from Shimazu Corporation).

A short description of data set [2]: Water-solubility test of compound in normal saline solution. It is filed as physicochemical. The settings on record: saline or isotonic, thermodynamic from solid, 0.5 mg in 1 ml normal saline solution, 42° C., precipitation or deposits. As to the method: In 1 ml of normal saline solution of an official grade was dissolved 0.5 mg of a dye (i.e., the cyanine compound to be tested) to make a solution.

Data set [3] relates to tumor tissue of breast cancer mouse implanted in BALB/c nude mouse. The data set is described as follows: Fluorescent contrast imaging test in tumor-implanted nude mice. Type of data set: in vivo. Also noted: key: A: fluorescence was clearly observed in the tumor portion; B: fluorescence was also observed in the normal portion but the tumor portion was discernible; C: the normal portion and the tumor portion emitted slight fluorescence but the tumor portion was barely discernible; D: slight fluorescence was emitted overall and the tumor portion was not discernible from the normal portion; E: no fluorescence was observed. The settings on record: 3 mg/kg through lactiferous duct and adenoid lobe; whole-body fluorescent imaging 30 min., 12 hr. and 24 hr. after dosage; fluorescence of tumor portion. As to the method:
Model mice having breast cancer were prepared by dosing a carcinogene, 7,12-dimethylbenz[a]anthracene (DMBA) to an acceleratedly aged mice, SAMP6/Ta type mouse as one system of a so-called SAM type to cause breast cancer. Carcinogenesis was carried out in accordance with the description of JP-A No. 2003-033125. To each of 20 SAMP6/Ta type mice, DMBA was dosed in an amount of 0.5 mg/mouse·week, a total of six times. Solid high-protein, high-calorie CA-1 (available from CLEA Japan Inc.) was fed to the mice. After completion of the 6th dose of the carcinogenic substance, the dosage was stopped until the 20th month calculated from the 1st month. Breast cancer and lung metastasis were examined in the manner of pathologic histology.
A segment (2 mm×2 mm square) of tumor tissue of the foregoing breast cancer mouse was implanted below the skin of the breast in the left chest of a BALB/c nude mouse (5 weeks old, CLEA Japan Inc.). After 10 days, when the tumor has grown up to a diameter of approximately 5 mm, the foregoing mice were subjected to the fluorescent contrast imaging test. A titanium/sapphire laser was used as an exciting light source. The test mice in a darkened box were uniformly exposed to laser light using a ring-type light guide (available from Sumita Optical Glass Inc.) so that the dispersion of exposure fell within 2%. The irradiation output was adjusted so as to be about 38 μW/cm^2 near the skin surface of the mice. Fluorescence was emitted by excitation at the absorption peak wavelength of the respective compounds and fluorescent radiation from the mice was subjected to detection and imaging by using a CCD camera (C4880, produced by Hamamatsu Photonics K.K.) together with a filter to cut reflection of incident light at the shorter wavelength side. The exposure time was adjusted in accordance with the fluorescence intensity of the respective compounds. As to the tumor portion, the image obtained by attaching a marker onto the skin surface and observing it under white light was superposed onto the image obtained by removing the marker, followed by exposure to a laser light in the dark and evaluation was made with respect to fluorescence emitted from the tumor portion.
Each of the test compounds shown in Table 1 was dissolved in a normal saline solution (at 0.5 mg/ml) and dosed to the mice through a lactiferous duct and an adenoid lobe. The dose was 3 mg/kg for the respective test compounds. […]

As for `CC1(C)C(/C=C/C=C/C=C/C=C2/N(CCCCS(=O)(=O)O)c3ccc4cc(S(=O)(=O)O)cc(S(=O)(=O)[O-])c4c3C2(C)C)=[N+](CCCCS(=O)(=O)O)c2ccc3cc(S(=O)(=O)O)cc(S(=O)(=O)O)c3c21` [Compound C-2], the “Discharge in vitro (%)” value in data set [1] stood at 97.0%. The same compound had a solubility at 1 week in data set [2] of over 500 µg/mL. In addition, the “Contrast Imaging” value in data set [3] is listed as “B”.

Take `CC1(C)C(/C=C/C=C/C=C/C=C2/N(CCCCS(=O)(=O)[O-])c3ccc4ccccc4c3C2(C)C)=[N+](CCCCS(=O)(=O)[O-])c2ccc3ccccc3c21.[Na+]` [Compound C-1, indoaniline green]: the “Discharge in vitro (%)” value in data set [1] is 99.0%. The same compound showed a solubility at 1 week in data set [2] of under 500 µg/mL. In addition, in data set [3], the “Contrast Imaging” value is “C”.

Consider `CC12CCC(/C=C/C=C/C=C3\CCC4(C)C3=[N+](CC(O)CS(=O)(=O)[O-])c3cccnc34)=C1N(CC(O)CS(=O)(=O)O)c1cccnc12` (stereo not drawn) [Compound 12], for which, in data set [1], the “Discharge in vitro (%)” value is recorded as 99.0%. Also, the solubility at 1 week in data set [2] was over 500 µg/mL. In addition, in data set [3], the “Contrast Imaging” value is recorded as “A”.

For the compound `CC12CCC(/C=C/C=C/C3=CC(=C4\CCC5(C)C4=[N+](CC(O)CS(=O)(=O)O)c4ccc(S(=O)(=O)[O-])cc45)/CCC3)=C1N(CC(O)CS(=O)(=O)O)c1ccc(S(=O)(=O)O)cc12` (stereo not drawn) [Compound 37], the “Discharge in vitro (%)” value in data set [1] was found to be 99.0%. Moreover, the solubility at 1 week in data set [2] is over 500 µg/mL. In data set [3], the “Contrast Imaging” value was “A”.
